{"source": "patent US20100063006A1", "about": "“COMPOSITIONS AND METHODS TO REDUCE FAT AND RETRACT SKIN” (American Network of Lipolysis, LLC, priority 2006, published 2010)", "key": {"[1]": {"test_system": "cultured human adipocytes", "test": "In vitro lipolysis assays (basal lipolysis rate, triglyceride detection) in cultured human adipocytes", "type": "cell-based", "details": "adipocytes incubated 12-14 hours in test composition; FIG. 8", "method": "Lipolysis induced in cultured human adipocytes by certain embodiments of the inventive injectable compositions for fat reduction and their constituent components was assayed in vitro under controlled conditions.\nCells utilized for the in vitro assays were obtained from five different dermolipectomy specimens. Preadipocytes were cultured in differentiation media over 14 days to produce adipocytes incubated between 12-14 hours in each of 12 test solutions. Each of the cell lines incubated in each of the 12 test solutions were split and introduced into four in vitro assays.\nCell lines were incubated in each of the following compositions: • 1. Phosphatidylcholine 25.6 milligrams per milliliter (mg/mL)/Deoxycholate 24.8 mg/mL, Benzyl Alcohol 25.6 mg/mL, ISUPREL 8 mg/mL, and Ropivacaine 5 mg/mL. • 2. Phosphatidylcholine 24.0 mg/mL/Deoxycholate 19.8 mg/mL, Benzyl Alcohol 25.6 mg/mL, ISUPREL 8 mg/mL, and Ropivacaine 5 mg/mL. • 3. Phosphatidylcholine 50.0 mg/mL/Deoxycholate 42.0 mg/mL. • 4. Deoxycholate 10.0 mg/mL. • 5. Phosphatidylcholine 45.0 mg/mL/Deoxycholate 42.0 mg/mL. • 6. Phosphatidylcholine 53.0 mg/mL/Deoxycholate 42.0 mg/mL. • 7. Phosphatidylcholine 50 mg/mL in mineral oil. • 8. Deoxycholate 24.8 mg/mL. • 9. Benzyl alcohol 25.6 mg/mL. • 10. ISUPREL 8.0 mg/mL. • 11. Ropivacaine 5.0 mg/mL. • 12. Vitamin B complex and pentoxyffline • 13. Control--Saline Solution. […]\nB. Basal Lipolysis Rate. Free lipid in collected supernatant was quantified using a Lipolyis assay available from Zan-Bio, Catalog No. LIP-1 to measure released glycerol. […] The quinoneimine dye has an absorbance maximum at 540 nanometers. The increase in absorbance at 540 nanometers is directly proportionate to glycerol concentration in the supernatant.\nD. Triglyceride Detection. The amount of triglyceride was quantified by measurement of glycerol released by cell lysis into the supernatant utilizing a triglyceride assay kit available from Zen-Bio, Catalog No. TG-1-NC. There is a molar equivalent of triglyceride for each mole of glycerol detected."}, "[2]": {"details": "nausea, vomiting, diarrhea, flushing, sweating, bradycardia; cited from earlier work"}}, "note": "Counter-ions that a name gives are not always drawn."}
{"compound": "OCc1ccccc1", "note": "[Test composition no. 9, Benzyl alcohol]", "values": [{"measurement": "lipolytic action (free lipids) compared with the saline control", "setting": "[1]", "value": "do not appear to have lipolytic action greater than the control"}]}
{"compound": "CC(C)NCC(O)c1ccc(O)c(O)c1", "note": "(stereo not shown) [Test composition no. 10, isoproterenol hydrochloride]", "values": [{"measurement": "lipolytic action (free lipids) compared with the saline control", "setting": "[1]", "value": "do not appear to have lipolytic action greater than the control"}]}
{"compound": "CCCN1CCCC[C@H]1C(=O)Nc1c(C)cccc1C", "note": "[Test composition no. 11, Ropivacaine]", "values": [{"measurement": "lipolytic action (free lipids) compared with the saline control", "setting": "[1]", "value": "do not appear to have lipolytic action greater than the control"}]}
{"compound": "phosphatidylcholine [PC]", "values": [{"measurement": "total administered amount of PC above which cholinergic side effects occur", "setting": "[2]", "value": "exceeds 2000 mg per treatment"}]}
